In one assay the target is T1, AGTR1 (Homo sapiens, UniProt P30556).
T1 construct: purchased Promega (in-house HiBiT-GPCR construct library, NanoBRET)
T1 sequence (P30556 1-359): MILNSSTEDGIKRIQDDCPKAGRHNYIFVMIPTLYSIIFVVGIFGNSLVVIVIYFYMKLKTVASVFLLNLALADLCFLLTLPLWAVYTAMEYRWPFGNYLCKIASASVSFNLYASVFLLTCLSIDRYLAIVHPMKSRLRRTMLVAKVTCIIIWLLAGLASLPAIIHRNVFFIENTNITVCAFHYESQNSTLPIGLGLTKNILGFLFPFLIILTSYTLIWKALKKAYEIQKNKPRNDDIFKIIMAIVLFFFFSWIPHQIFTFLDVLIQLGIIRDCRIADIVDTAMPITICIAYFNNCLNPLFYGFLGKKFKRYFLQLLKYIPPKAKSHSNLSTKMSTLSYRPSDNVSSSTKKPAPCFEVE
Kind of assay: NanoBRET screen HiBiT-AGTR1 in HEK293. In kind it is binding. The procedure:
(§1) Each tracer candidate was screened across the entire library of HiBiT-GPCR constructs using NanoBRET as the detection modality. As depicted in Figure 4A, the specificity of interactions was evaluated through decrease in BRET due to competitive displacement of a bound tracer by excess parental compound. Each tracer was analyzed for binding to each HiBiT-GPCR fusion in the absence and in the presence of competing parental compound. Briefly, HEK293 cells were transfected with HiBiT-GPCR constructs diluted into promoterless DNA to reduce expression and maximize translocation to the cell surface. Each tracer candidate was then screened at concentrations of 1 μM and 0.1 μM across cells expressing these fusions. Cells were treated for 1.5 h with tracer either alone or in the presence of 20 μM competing parental compound (i.e., control). BRET was measured upon addition of purified LgBiT and subsequent complementation with HiBiT genetically fused to a GPCR. The specificity of interactions was assessed through a decrease in BRET signal due to competitive displacement of the bound tracer. To further gauge the robustness of these interactions, the fold response over the control (i.e., BRETtracer/BRETcontrol) was calculated. We chose a 1.5-fold response, which translates to ≥7-fold signal over noise as the minimal threshold required to score an interaction as positive. […]. Below we highlight the screening results obtained for our exemplary fluorescent tracers based on Clozapine, Amitriptyline and AZD1283.
(§2) HiBiT-GPCR DNA constructs were diluted in 10 mM Tris pH 8 to a final concentration of 0.01 μg/μL, arrayed in 96-well plates and stored at −20 °C. For transfection, HEK293 cells were suspended in Opti-MEM (without phenol red) supplemented with 2% fetal bovine serum (Seradigm) and 100 units/mL penicillin–streptomycin (Gibco) at a final concentration of 220,000 cells/mL and dispensed into white 96-well plates at 90 μL/well. Subsequent transfections and screens were carried using an Agilent Bravo Automated Liquid Handling Platform. First, the 96-well HiBiT DNA arrays were diluted 25-fold in Opti-MEM (without serum or phenol red) to a final concentration of 0.0004 μg/μL and 20 μL of the diluted DNAs were transferred into new 96-well plates. Next, promoterless carrier DNA (1 μg/μL) was diluted 25-fold (0.04 μg/μL) and then dispensed into the diluted arrays at 20 μL/well. Following brief mixing, Viafect transfection reagent (Promega) diluted 16-fold into Opti-MEM was dispensed into the plates at 40 μL/well. After mixing by pipetting, plates were incubated for 10 min on the pipetting station deck. The DNA-transfection reagent complexes were then added to plates containing cells. To facilitate the screen, 10 μL of DNA-transfection reagent complexes were added in duplicates to the top 4 and bottom 4 rows, resulting in two identical 48-well arrays per plate. Plates with transfected cells were incubated for 18–20 h at 37 °C/5% CO2. A screen of each tracer across the entire library using two different concentrations requires duplicate plates of transfected cells. Depending on the number of tracers being screened, transfections can be scaled up using the same ratios. The next day, for each tracer, four 20× screening solutions in tracer dilution buffer (Promega) were prepared: two duplicates at final concentration of 20 μM and two duplicates at a final concentration of 2 μM. A competing unmodified compound was added to one of each duplicate at a final concentration of 400 μM. The four resulting solutions were diluted 4-fold in Opti-MEM without serum or phenol red to generate 5× solutions (5 µM and 0.5 µM tracer +/− 100 μM competing compound). To screen the library, a BioTek MultiFlo FX liquid dispenser was used to dispense 22.5 µL of tracer solution to the top 4 rows and 22.5 µL tracer + competing compound solution to the 4 bottom rows. Plates were briefly mixed on an orbital shaker and incubated for 1.5 h at room temperature. […]

The next assay addresses T2, FZD6 (Homo sapiens, UniProt O60353).
T2 construct: purchased Promega (in-house HiBiT-GPCR construct library, NanoBRET)
T2 sequence (O60353 19-706): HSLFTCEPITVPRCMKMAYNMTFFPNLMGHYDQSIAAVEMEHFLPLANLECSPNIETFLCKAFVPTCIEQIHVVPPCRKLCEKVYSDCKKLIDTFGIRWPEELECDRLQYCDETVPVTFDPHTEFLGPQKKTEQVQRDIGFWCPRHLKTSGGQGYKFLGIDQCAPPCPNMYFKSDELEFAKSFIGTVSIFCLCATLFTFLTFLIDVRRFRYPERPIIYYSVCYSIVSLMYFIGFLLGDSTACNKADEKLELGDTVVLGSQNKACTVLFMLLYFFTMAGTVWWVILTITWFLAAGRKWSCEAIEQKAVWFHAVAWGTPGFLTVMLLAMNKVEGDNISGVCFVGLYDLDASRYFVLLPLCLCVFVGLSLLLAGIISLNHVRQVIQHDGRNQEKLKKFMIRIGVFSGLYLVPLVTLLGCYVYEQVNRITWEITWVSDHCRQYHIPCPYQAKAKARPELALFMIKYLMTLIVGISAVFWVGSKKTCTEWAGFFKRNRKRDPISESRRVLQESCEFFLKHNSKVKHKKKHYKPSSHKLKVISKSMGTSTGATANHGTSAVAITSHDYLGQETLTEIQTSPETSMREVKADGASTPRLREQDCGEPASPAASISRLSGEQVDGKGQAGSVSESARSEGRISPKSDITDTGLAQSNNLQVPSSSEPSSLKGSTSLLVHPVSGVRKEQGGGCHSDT
The assay can be described thus: NanoBRET screen HiBiT-FZD6 in HEK293. The assay is classed as binding. The protocol: as §1, §2

Consider `O=C(CCc1ccc2n1[B-](F)(F)[N+]1=C(c3ccc[nH]3)C=CC1=C2)NCc1ccc(C(=O)NCCOCCC(=O)N[C@@H]2CC[C@@]3(O)[C@H]4Cc5ccc(O)c6c5[C@@]3(CCN4CC3CC3)[C@H]2O6)cc1` [Naltrexone-3-NB590], for which the “NanoBRET Fold Response” value is on record as 1.07 on AGTR1 (AGTR1, tracer 0.1μM); 0.93 at AGTR1 (AGTR1, tracer 1μM); 0.94 at FZD6 (FZD6, tracer 0.1μM); 1.10 at FZD6 (FZD6, tracer 1μM).

Turning to `CN1CCN(C2=Nc3cc(Cl)ccc3N(CC(=O)NCCOCCOCCOCCOCCNC(=O)CCc3ccc4n3[B-](F)(F)[N+]3=C(c5ccc[nH]5)C=CC3=C4)c3ccccc32)CC1` [Clozapine-c-2-NB590], the “NanoBRET Fold Response” value is recorded as 0.98 on AGTR1 (AGTR1, 0.1μM tracer); 0.93 on AGTR1 (AGTR1, 1μM tracer); 1.01 on FZD6 (FZD6, 0.1μM tracer); 1.04 on FZD6 (FZD6, 1μM tracer).

For `O=C(CCOCCOCCOCCOCCNC(=O)CCc1ccc2n1[B-](F)(F)[N+]1=C(c3ccc[nH]3)C=CC1=C2)NCCCN1CCN(C2=Nc3cc(Cl)ccc3Nc3ccccc32)CC1` [Clozapine-a-2-NB590], the “NanoBRET Fold Response” value amounted to 0.96 on AGTR1 (AGTR1, 0.1μM tracer); 1.05 at AGTR1 (AGTR1, 1μM tracer); 0.99 at FZD6 (FZD6, 0.1μM tracer); 0.93 at FZD6 (FZD6, 1μM tracer).

Consider `CCOC(=O)c1cc(C#N)c(N2CCC(C(=O)NS(=O)(=O)Cc3ccccc3/C=C/C(=O)NCCNC(=O)CCc3ccc4n3[B-](F)(F)[N+]3=C(c5ccc[nH]5)C=CC3=C4)CC2)nc1C` [AZD1283-1-NB590], for which the “NanoBRET Fold Response” value at AGTR1 (AGTR1, 0.1μM) was found to be 1.01; at AGTR1 (AGTR1, 1μM), 1.05; on FZD6 (FZD6, 0.1μM), 1.01; at FZD6 (FZD6, 1μM), 0.35.

Consider `COc1ccc2[nH]c(-c3ccc(CNC(=O)CCOCCOCCOCCOCCNC(=O)CCc4ccc5n4[B-](F)(F)[N+]4=C(c6ccc[nH]6)C=CC4=C5)cc3)c(CCNC(C)=O)c2n1` [AzomelatoninICO9-2-NB590], for which the “NanoBRET Fold Response” value is 0.91 at AGTR1 (0.1μM tracer), 0.94 at AGTR1 (1μM tracer), 1.12 on FZD6 (0.1μM tracer) and 0.94 at FZD6 (1μM tracer).

Take `CCCn1c(=O)c2[nH]c(-c3ccc(OCC(=O)NCCNC(=O)CCOCCNC(=O)c4ccc(CNC(=O)CCc5ccc6n5[B-](F)(F)[N+]5=C(c7ccc[nH]7)C=CC5=C6)cc4)cc3)nc2n(CCC)c1=O` [XAC-3-NB590]: the “NanoBRET Fold Response” value at AGTR1 (AGTR1, tracer 0.1μM) is recorded as 1.24; on AGTR1 (AGTR1, tracer 1μM), 1.19; at FZD6 (FZD6, tracer 0.1μM), 0.95; at FZD6 (FZD6, tracer 1μM) it was 1.05.

For `COc1ccccc1N1CCN(CCCCN2C(=O)c3ccc(CNC(=O)CCOCCNC(=O)c4ccc(CNC(=O)CCc5ccc6n5[B-](F)(F)[N+]5=C(c7ccc[nH]7)C=CC5=C6)cc4)cc3C2=O)CC1` [NAN-190-3-NB590], the “NanoBRET Fold Response” value at AGTR1 (AGTR1, tracer 0.1μM) worked out at 0.92; at AGTR1 (AGTR1, tracer 1μM), 1.04; on FZD6 (FZD6, tracer 0.1μM), 0.95; at FZD6 (FZD6, tracer 1μM), 1.13.

`CN(CCC=C1c2ccccc2CCc2ccccc21)C(=O)CCOCCOCCOCCOCCNC(=O)CCc1ccc2n1[B-](F)(F)[N+]1=C(c3ccc[nH]3)C=CC1=C2` [Amitriptyline-e-2-NB590]: the “NanoBRET Fold Response” value at AGTR1 (tracer at 1μM) amounted to 1.02; at FZD6 (tracer at 1μM), 1.09.

On to `O=C(CCc1ccc2n1[B-](F)(F)[N+]1=C(c3ccc[nH]3)C=CC1=C2)NCc1ccc(C(=O)NCCOCCOCCNCC(O)COc2cccc3ccccc23)cc1` (centres unmarked) [Propranolol-3-NB590], for which the “NanoBRET Fold Response” value on AGTR1 (AGTR1, 0.1μM) is listed as 1.04; on AGTR1 (AGTR1, 1μM), 1.07; on FZD6 (FZD6, 0.1μM), 1.06; on FZD6 (FZD6, 1μM) it was 1.01.

Consider `COc1ccc2c(n1)c(CCNC(C)=O)cn2CCNC(=O)CCc1ccc2n1[B-](F)(F)[N+]1=C(c3ccc[nH]3)C=CC1=C2` [Azamelatonin-1-NB590], for which the “NanoBRET Fold Response” value on AGTR1 (0.1μM tracer) was 0.78; at AGTR1 (1μM tracer) it was 1.07; on FZD6 (0.1μM tracer), 1.09; at FZD6 (1μM tracer) it was 0.86.

(Values after paper PMC8151276, “An Integrated Approach toward NanoBRET Tracers for Analysis of GPCR Ligand Engagement” (Molecules, 2021).)
